Laboratory results as given in US11180530B2, “Salt of phenylpropionamide derivative and preparation method therefor” (priority 2017, dated 2021).
Like-named read-outs stand apart in the source and are kept apart here. Where a SMILES comes first, the peptide text is derived from it. [ ]: non-standard residue; d: D form. The star is where a group is joined. Gly(N-(2R-Ph-propyl)) = C[C@@H](CNCC(=O)O)c1ccccc1; Piperidin1yl(4-NH2,4-COOH) = NC1(C(=O)O)CCN(*)CC1

Columns and labels:
[1] = assay type: physicochemical
Protocol: Samples of acetate, hydrochloride, citrate and phosphate of the compound represented by formula (I) were subjected to a long-term accelerated stability investigation for 6 months under dark and sealed conditions (the inner package is a medicinal low-density polyethylene composite film and the outer package is aluminum foil), humidity (60% RH), temperature (4° C., 25° C.) and with/without nitrogen protection.

[2] = assay type: physicochemical; conditions: for Stability (conclusion in words): illumination and high temperature
Protocol: Samples of the compound represented by formula (I) and acetate, hydrochloride, citrate and phosphate of the compound represented by formula (I) were respectively placed open and evenly spread, so that the stability of the samples were investigated under the conditions of room temperature, heating (40° C., 60° C.), illumination (4500Lux) and high humidity (RH75% and RH90%). The sampling period is 20 days.

[3] = Canine pharmacokinetic test, intravenous administration; assay type: in vivo; conditions: Beagle dogs
Source text: Beagle dogs were used as test animals, and LC/MS/MS methods were used to determine the drug concentration in plasma of Beagle dogs at different time points after intravenous administration of the compound represented by formula (I). To study the pharmacokinetic behavior of the compound of the present invention in Beagle dogs and evaluate its pharmacokinetic characteristics.
3 male beagle dogs provided by Medicilon Pharmaceutical Technology (Shanghai) Co, Ltd in each group.
A proper amount of sample was weighted and 100% normal saline was added for dissolution.
Beagle dogs 3, male, for one group; intravenous administration with a volume of 2 ml/kg after fasting for one night.
For the intravenous administration group, 1.0 ml of blood was collected from jugular vein before and 5 mins, 15 mins, 0.5, 1.0, 2.0, 4.0, 8.0, 12.0, 24.0 hrs after administration, then placed in a heparinized test tube, centrifuged at 3500 rpm for 10 mins to separate plasma, and stored at −80° C.
LC/MS/MS method was used to determine the content of compound in Beagle dog plasma after intravenous administration.

[4] = Solubility (salt formation research); assay type: physicochemical
[5] = tested on: inflammatory pain induced by carrageenan in rats; test: Carrageenan inflammatory pain model, plantar tenderness (Electronic Von Frey); assay type: in vivo, Wistar rats; conditions: for tenderness threshold: 30 min before test, model group 7.6 g
Protocol: Male Wistar rats for experiment purchased from Shanghai Slack Experimental Animal Co, Ltd. (Shanghai, China, certificate No. 2015000513408, license SOCK (Shanghai) 2012-0002, 150-180 g at the time of purchase, 5 rats/cage, 12/12 hour light/dark cycle adjustment, constant temperature of 23±1° C., humidity of 50-60%, free intake of water. After the animals were purchased, they were reared for more than 7 days to start the experiment.
1% λ-carrageenan mixed with physiological saline and stirred overnight, forming a jelly suspension.
The experimental method was improved according to the method in document 1 (Kazunari Nakao et al.). Before the inflammatory pain experiment, rats were randomly divided into the following groups according to body weight: blank control group, model group, 0.1 mg/kg group and 0.3 mg/kg group. There were 8 rats in each group. Inflammatory pain model was established by subcutaneous injection of 1% carrageenan (100 μl) into the foot pad of Wistar rats. After 4 hours, the rats were tested for plantar tenderness to evaluate their mechanical pain threshold, the rats were administrated single caudal vein administration (1 ml/kg) 30 min before the test, and the control group and model group were given the corresponding solvents.
Electronic Von Frey: UGO BASILE, type 38450.
The experimental data were expressed by Mean±standard deviation (S.D.). Statistical comparison was carried out with Excel software T test.

## CC(C)C[C@@H](NC(=O)[C@@H](Cc1ccccc1)NC(=O)CNC[C@H](C)c1ccccc1)C(=O)N[C@H](CCCCN)C(=O)N1CCC(N)(C(=O)O)CC1 [Phosphate (1:3)] (H-[Gly(N-(2R-Ph-propyl))][dF][dL][dK]-{Piperidin1yl(4-NH2,4-COOH)})
[1]; 6 months, 4° C., 25° C., 60% RH, with/without nitrogen protection, amorphous samples
  Long-term stability (conclusion in words): stable
[2]; 20 days
  Stability (conclusion in words): relatively stable or slightly degraded

## CC(C)C[C@@H](NC(=O)[C@@H](Cc1ccccc1)NC(=O)CNC[C@H](C)c1ccccc1)C(=O)N[C@H](CCCCN)C(=O)N1CCC(N)(C(=O)O)CC1 [Embodiment 9, 4-amino-1-((2R,5R,8R,14R)-2-(4-aminobutyl)-8-benzyl-5-isobutyl-4,7,10-trioxo-14-phenyl-3,6,9,12-tetraazapentadecan-1-acyl)piperidine-4-carboxylic acid] (H-[Gly(N-(2R-Ph-propyl))][dF][dL][dK]-{Piperidin1yl(4-NH2,4-COOH)})
[1]; 4° C., 1 month
  Aspect: White
  Purity %: 99.51%
[1]; 4° C., 3 months
  Aspect: White
  Purity %: 99.51%
[1]; 4° C., 6 months
  Aspect: White
  Purity %: 98.57%
[1]; 4° C., initial
  Aspect: White
  Purity %: 99.54%
[1]; 25° C., 60% RH, nitrogen protection, 1 month
  Purity %: 99.52%
[1]; 25° C., 60% RH, nitrogen protection, 3 months
  Purity %: 99.50%
[1]; 25° C., 60% RH, nitrogen protection, 6 months
  Purity %: 98.54%
[1]; 25° C., 60% RH, nitrogen protection, initial
  Purity %: 99.54%
[1]; 25° C., 60% Rh, 1 month
  Purity %: 99.46%
[1]; 25° C., 60% Rh, 3 months
  Purity %: 99.51%
[1]; 25° C., 60% Rh, 6 months
  Purity %: 99.51%
[1]; 25° C., 60% Rh, initial
  Purity %: 99.54%
[2]; 4500 Lux, 0 days (initial)
  Purity %: 96.50%
[2]; 4500 Lux, 5 days
  Purity %: 95.57%
[2]; 4500 Lux, 10 days
  Purity %: 94.27%
[2]; 4500 Lux, 20 days
  Purity %: 94.24%

## CC(C)C[C@@H](NC(=O)[C@@H](Cc1ccccc1)NC(=O)CNC[C@H](C)c1ccccc1)C(=O)N[C@H](CCCCN)C(=O)N1CCC(N)(C(=O)O)CC1 [Embodiment 20, 4-amino-1-((2R,5R,8R,14R)-2-(4-aminobutyl)-8-benzyl-5-isobutyl-4,7,10-trioxo-14-phenyl-3,6,9,12-tetraazapentadecan-1-acyl)piperidine-4-carboxylic acid] (H-[Gly(N-(2R-Ph-propyl))][dF][dL][dK]-{Piperidin1yl(4-NH2,4-COOH)})
[3]
  pharmacokinetic properties (in words): good
[2]; 40° C., 5 days
  Purity %: 97.60%
[2]; 4500 Lux, 0 days (initial)
  Purity %: 99.68%
[2]; 4500 Lux, 5 days
  Purity %: 97.76%
[2]; 4500 Lux, 10 days
  Purity %: 97.72%
[2]; 4500 Lux, 20 days
  Purity %: 97.15%
[2]; 20 days, listed as free state
  Stability (conclusion in words): degraded greatly
[4]
  solubility (in words): low
[5]; 0.1 mg/kg i.v.
  increase range of tenderness threshold compared with the model group: 79.5%
[5]; 0.1 mg/kg i.v. single
  tenderness threshold: 13.7 g
[5]; 0.3 mg/kg i.v.
  increase range of tenderness threshold compared with the model group: 204.5%
[5]; 0.3 mg/kg i.v. single
  tenderness threshold: 23.2 g
